Paper PMC11714206, “Massively Parallel Screening of Toll/Interleukin‐1 Receptor (TIR)‐Derived Peptides Reveals Multiple Toll‐Like Receptors (TLRs)‐Targeting Immunomodulatory Peptides” (Advanced Science, 2024)
Values joined by “and” are separate entries in the source; they are usually repeats but may differ in a detail not shown here. Equal values may be shown once.

How the values were obtained:
[1] = molecular target: T1, MAL^TIR (Homo sapiens, UniProt P58753); assay: T‐Surf phage library (P8 and P3) selection against MAL^TIR, four rounds, NGS read counts; assay type: binding; settings: for Population: 4th round of selection against MAL TIR, share of NGS reads; for P3_MAL Rank (after) / P3_MAL Rank (before): P3 library; for P8_MAL Rank (after) / P8_MAL Rank (before): P8 library
T1 construct: MAL (residues 79–221); 6xHis; made in house; host or cells: E. coli BL21 (DE3)
How it was run: (§1)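 Read counts come from NGS of phage pools enriched over four selection rounds on the plate‐coated TIR domain (5 µg mL^−1). Each round: 1 h phage binding at room temperature after 0.2% BSA blocking, Tween washes, acid elution, amplification in E. coli TG1 with M13KO7 helper.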

[2] = molecular target: T2, MyD88^TIR (Homo sapiens, UniProt Q99836); assay: T‐Surf phage library (P8 and P3) selection against MyD88^TIR, four rounds, NGS read counts; assay type: binding; settings: for P3_MyD88 Rank (after) / P3_MyD88 Rank (before): P3 library; for Population: 4th round of selection against MyD88 TIR, share of NGS reads
T2 construct: MyD88 (residues 148–296); 6xHis; made in house; host or cells: E. coli BL21 (DE3)
How it was run: as §1

[3] = P8_MAL pool: P8 T-Surf phage library
[4] = selection against MAL, rank after grouping
[5] = selection against MAL, rank before grouping
[6] = selection against MyD88 TIR, rank by count after grouping
[7] = selection against MyD88 TIR, rank by count before grouping
[8] = P3_MAL: rank by count after grouping
[9] = P3_MAL: rank by count before grouping
[10] = P3_MyD88 pool: P3 T-Surf phage library
[11] = selection against MAL TIR, rank by count after grouping
[12] = selection against MAL TIR, rank by count before grouping
[13] = P3_MyD88: rank by count after grouping
[14] = P3_MyD88: rank by count before grouping
[15] = P3_MAL pool: P3 T-Surf phage library
[16] = selection against MyD88, rank after grouping
[17] = selection against MyD88, rank before grouping
[18] = 4R selection against MAL, rank after grouping
[19] = 4R selection against MAL, rank before grouping
[20] = 4R selection against MyD88, rank after grouping
[21] = 4R selection against MyD88, rank before grouping
[22] = selection against MAL, rank by count after grouping
[23] = selection against MAL, rank by count before grouping
[24] = P8_MAL: rank by count after grouping
[25] = P8_MAL: rank by count before grouping

T1 sequence (P58753 79-221): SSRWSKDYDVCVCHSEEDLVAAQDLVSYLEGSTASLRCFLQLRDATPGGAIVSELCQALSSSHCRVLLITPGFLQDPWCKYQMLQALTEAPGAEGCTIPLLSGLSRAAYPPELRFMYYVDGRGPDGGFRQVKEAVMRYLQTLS
T2 sequence (Q99836 148-296): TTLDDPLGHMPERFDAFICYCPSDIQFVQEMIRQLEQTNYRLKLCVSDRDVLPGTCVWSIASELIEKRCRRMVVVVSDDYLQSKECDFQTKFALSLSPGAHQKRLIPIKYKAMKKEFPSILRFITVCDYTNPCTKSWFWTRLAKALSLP

RNFVAYLFQALANKGI
Population [1, 3]: 0.0034%
P8_MyD88 Rank (after) ([2]; P8 library, selection against MyD88, rank after grouping): 483
P8_MyD88 Rank (before) ([2]; P8 library, selection against MyD88, rank before grouping): 3397

YTALTNSGFHTFREM
P3_MAL Rank (after) [1, 4]: 500
P3_MAL Rank (before) [1, 5]: 1548
P3_MyD88 Rank (after) [2, 6]: 213
P3_MyD88 Rank (before) [2, 7]: 1675

YLKWGDPYFWSKLRYAM
Rank (after) [1, 8]: 159
Rank (before) [1, 9]: 519
Population [2, 10]: 0.00466%

LKWGDPYFGANCVMR
Rank (after) [1, 8]: 143
Rank (before) [1, 9]: 415
P3_MyD88 Rank (after) [2, 6]: 269
P3_MyD88 Rank (before) [2, 7]: 1069

WFWDKLIYALSRNPH
P3_MAL Rank (after) [1, 11]: 278
P3_MAL Rank (before) [1, 12]: 712
Rank (after) [2, 13]: 155
Rank (before) [2, 14]: 549

SSFREGLWRLLVLSKK
Population [1, 15]: 0.00338%
Population [2, 10]: 0.00437%

EWIREGLWRLLELSKK
Rank (after) [1, 8]: 135
Rank (before) [1, 9]: 411
Rank (after) [2, 13]: 96
Rank (before) [2, 14]: 361

KEVEGWRDALTKVANLSGW
P3_MAL Rank (after) [1, 4]: 565
P3_MAL Rank (before) [1, 5]: 3573
P3_MyD88 Rank (after) [2, 16]: 522
P3_MyD88 Rank (before) [2, 17]: 3634

SSFREGLWRLLELSKLRYAM
P3_MAL Rank (after) [1, 4]: 558
P3_MAL Rank (before) [1, 5]: 3151
P3_MyD88 Rank (after) [2, 16]: 517
P3_MyD88 Rank (before) [2, 17]: 3173

NQWRNALTAAANLS
Population [1, 15]: 0.0162%
Rank (after) [1, 8]: 102
Rank (before) [1, 9]: 105
Population [2, 10]: 0.00553%

AFLYTFLINLTHPTNF
P3_MAL Rank (after) [1, 18]: 588
P3_MAL Rank (before) [1, 19]: 1798
Population [1, 3]: 0.00463% and 0.00432% and 0.00402% and 0.00371% and 0.0034% and 0.00309% and 0.00278%
P3_MyD88 Rank (after) [2, 16]: 537
P3_MyD88 Rank (before) [2, 17]: 1881

YAFTGHLHRYLVQHCE
Rank (after) [1, 8]: 115
Rank (before) [1, 9]: 207
Rank (after) [2, 13]: 169
Rank (before) [2, 14]: 841

WKNALANIAEILGFEL
P8_MAL Rank (after) [1, 11]: 287
P8_MAL Rank (before) [1, 12]: 1431
Rank (after) ([2]; P8_MyD88: rank by count after grouping): 162
Rank (before) ([2]; P8_MyD88: rank by count before grouping): 180
Population ([2]; P8_MyD88 pool: P8 T-Surf phage library): 0.00732%

YAFTGHLHRYLVQREPAGN
Rank (after) [1, 8]: 413
Rank (before) [1, 9]: 1402
P3_MyD88 Rank (after) [2, 6]: 196
P3_MyD88 Rank (before) [2, 7]: 1511

LQNQWKLALTKVASL
Rank (after) [1, 8]: 132
Rank (before) [1, 9]: 327
Rank (after) [2, 13]: 100
Rank (before) [2, 14]: 374

LKWGYPWFWDRLRFA
Rank (after) [1, 8]: 123
Rank (before) [1, 9]: 329
Population [2, 10]: 0.00495%

NQWKLALTKVANLV
P3_MAL Rank (after) [1, 18]: 638
P3_MAL Rank (before) [1, 19]: 3421
P3_MyD88 Rank (after) [2, 20]: 579
P3_MyD88 Rank (before) [2, 21]: 3536

LNGAIRIFGANCVMR
P3_MAL Rank (after) [1, 4]: 534
P3_MAL Rank (before) [1, 5]: 2194
P3_MyD88 Rank (after) [2, 16]: 494
P3_MyD88 Rank (before) [2, 17]: 2400

NQWRNALTAAANLRL
P3_MAL Rank (after) [1, 4]: 550
P3_MAL Rank (before) [1, 5]: 3366
P3_MyD88 Rank (after) [2, 16]: 507
P3_MyD88 Rank (before) [2, 17]: 3498

DSQSSRFKDDADLVG
P3_MAL Rank (after) [1, 4]: 511
P3_MAL Rank (before) [1, 5]: 1972
Rank (after) [2, 13]: 141
Rank (before) [2, 14]: 635

YTLLAICMMRCIVIV
P3_MAL Rank (after) [1, 22]: 751
P3_MAL Rank (before) [1, 23]: 1535
P3_MyD88 Rank (after) ([2]; selection against MyD88, rank by count after grouping): 682
P3_MyD88 Rank (before) ([2]; selection against MyD88, rank by count before grouping): 1622

LKVESCVRRWKKRAN
P3_MAL Rank (after) [1, 11]: 213
P3_MAL Rank (before) [1, 12]: 2293
P3_MyD88 Rank (after) [2, 20]: 592
P3_MyD88 Rank (before) [2, 21]: 2519

RSFRDRLWRHLQLNEK
P3_MAL Rank (after) [1, 4]: 506
P3_MAL Rank (before) [1, 5]: 2575

YAFTGHRHRYLVKRGV
Rank (after) [1, 8]: 179
Rank (before) [1, 9]: 1445

RLQKWKEALHQIHSRV
Rank (after) [1, 8]: 189
Rank (before) [1, 9]: 2551

RLLKWGYPWFWDRLRFA
Rank (after) [1, 8]: 187
Rank (before) [1, 9]: 907

LFFWGSLRQLLRNDDG
P8_MAL Rank (after) [1, 11]: 260
P8_MAL Rank (before) [1, 12]: 2058

SSFREGLWRLLELSK
Rank (after) [1, 8]: 131
Rank (before) [1, 9]: 369

SFFWNKLRYALTYRPAT
Rank (after) [1, 8]: 437
Rank (before) [1, 9]: 2995

CLLKWKEALHQFHSGV
Rank (after) [1, 8]: 447
Rank (before) [1, 9]: 1216

YAFTGHLQRYLVQRGE
P3_MAL Rank (after) [1, 22]: 719
P3_MAL Rank (before) [1, 23]: 1435

FLNFRAWMCVTIFWA
P3_MAL Rank (after) [1, 22]: 677
P3_MAL Rank (before) [1, 23]: 1176

RGFLEPLRHHLQAKEQ
P3_MAL Rank (after) [1, 18]: 649
P3_MAL Rank (before) [1, 19]: 2355

AFLYTFLINLTHPNNF
Population [1, 3]: 0.00463%

WFYERLVSLLLRATKV
Rank (after) [1, 24]: 170
Rank (before) [1, 25]: 1156

WFFERLVKLILRDTKV
P8_MAL Rank (after) [1, 22]: 712
P8_MAL Rank (before) [1, 23]: 1114

AFLYAFLNNLTHPTTF
Rank (after) [1, 24]: 139
Rank (before) [1, 25]: 1767

PNLRTKVLNSLMSTKT
Rank (after) [1, 8]: 477
Rank (before) [1, 9]: 2709

TFFSQQLNTVVHTAIL
P8_MAL Rank (after) [1, 22]: 697
P8_MAL Rank (before) [1, 23]: 2542

FLNFRGLYVRNYFLGP
Rank (after) [1, 8]: 462
Rank (before) [1, 9]: 1145

WFYERLVSLILRHTKL
Rank (after) [1, 24]: 187
Rank (before) [1, 25]: 1155

QLIQQWIELHAPAAS
Rank (after) [1, 24]: 151
Rank (before) [1, 25]: 969

AFLYTFLIKLTHPPNF
Rank (after) [1, 24]: 101
Rank (before) [1, 25]: 1862

RLRKWKEALQQFHSWV
Rank (after) [1, 8]: 139
Rank (before) [1, 9]: 2548

RGFLSNLGHHLQAKDH
Rank (after) [1, 8]: 440
Rank (before) [1, 9]: 2401

RGFLCHLRHHLQATDH
P3_MAL Rank (after) [1, 22]: 706
P3_MAL Rank (before) [1, 23]: 2352

SEFIQKIILWMNLKNQ
P8_MAL Rank (after) [1, 18]: 581
P8_MAL Rank (before) [1, 19]: 2466

NQWRNTLTAAANLSGW
Population [1, 15]: 0.00376%

ALLYTFLINLTHPTNF
Population [1, 3]: 0.0034%

AFLGTFLIKLMHATIY
P8_MAL Rank (after) [1, 4]: 570
P8_MAL Rank (before) [1, 5]: 1906

WFYERLVSLILRNTRV
Rank (after) [1, 24]: 118
Rank (before) [1, 25]: 1290

WFYERLLTVIDRDTEV
P8_MAL Rank (after) [1, 4]: 500
P8_MAL Rank (before) [1, 5]: 1159

WFYDRIVSLNGRDKQV
P8_MAL Rank (after) [1, 22]: 711
P8_MAL Rank (before) [1, 23]: 1142

YAFTSSLHRYLVQRGV
P3_MAL Rank (after) [1, 18]: 592
P3_MAL Rank (before) [1, 19]: 1481
